{
  "source": "patent US12605412B2",
  "about": "“Microbial compositions for improving the efficacy of anticancer treatments based on immune checkpoint inhibitors and/or tyrosine kinase inhibitors and markers of responsiveness to such treatments” (INSTITUT GUSTAVE ROUSSY, priority 2019, dated 2026)",
  "test_system": "advanced renal cell carcinoma",
  "assay": "Clinical outcome of nivolumab (anti-PD-1) in RCC patients of the NIVOREN trial, stratified by antibiotic use",
  "format": "in vivo, human",
  "protocol": "The patients were included from Gustave Roussy Cancer Campus, France. Inclusion criteria were patients with stage IV clear cell or non-clear cell RCC histology and disease progression during or after >1 prior anti-angiogenic therapy regimens who received nivolumab intravenously (i.v.) 3 mg/kg every 2 weeks until disease progression or intolerable toxicity in the NIVOREN GETUG-AFU 26 Phase II trial (EudraCT: 2015-004117-24) (Albiges et al., 2018). Computer tomography (CT) scans were performed at baseline and every 8 to 12 weeks for the first year and then every 12 to 15 weeks until disease progression. Tumor response was assessed using the Response Evaluation Criteria in Solid Tumors version 1.1 (RECIST v1.1) (Eisenhauer et al., 2009). […] We evaluated objective response rate defined as the number of patients with a complete response and a partial response. The best overall response was defined as the investigator-assessed best response (complete response, partial response, stable disease, or progressive disease) from the start date of nivolumab to objectively documented disease progression or subsequent therapy, whichever occurred first. […] Forty patients were analyzed in addition to 60 non-small cell lung cancer patients in the Science 2018 paper (Routy et al., 2018). […] For the first time, RCC were analyzed as a single and independent cohort in this paper. […]",
  "data": [
    {"substance": "nivolumab [ICB]", "values": [
      {"measurement": "objective response rate (ORR)", "setting": "RCC patients on nivolumab, noATB subgroup, RECIST v1.1", "value": 28, "unit": "%"},
      {"measurement": "primary resistance", "setting": "no ATB subgroup during ICB therapy", "value": 33, "unit": "%"}
    ]}
  ]
}
